Laboratory results published in ChEMBL document CHEMBL1201862, “PubChem BioAssay data set” (2004).
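Grown in 96-well plates, cells were treated for 48 hours with each compound at five concentrations. Insufficient inhibition: endpoint recorded as highest concentration tested. GI50 is the concentration that inhibits growth by half.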 The source made the active and inactive calls. Rule as the data show it: active = GI50 up to about 1.1 µM and inactive = higher.

Assays:
Test in all cases: NCI tumour cell line growth inhibition, 48 h
[1] = tested on: XF498
[2] = tested on: HOP-18
[3] = tested on: MDA-MB-231
[4] = tested on: BT-549
[5] = tested on: MDA-MB-435
[6] = tested on: T47D
[7] = tested on: DU-145
[8] = tested on: 786-0
[9] = tested on: RXF 631

Measured: GI50

CCOC(=O)/C(O)=C1\C(=O)N(C)C(=O)C1c1ccc(OC)c(OC)c1 (stereo unspecified)
inactive: [1] > 100 µM | [2] > 100 µM

Brc1ccccc1/C=C\C1(c2ccccc2)OCCO1
inactive: [3] 9.27 µM | [4] 18.3 µM | [5] 11.7 µM | [6] 15.2 µM | [7] 13.7 µM | [8] 11.6 µM

CN(C)C(CN)CC1=C(CC(CN)N(C)C)CCC1 (stereo unspecified)
inactive: [1] > 100 µM | [2] > 100 µM

CCOc1cc(C(=O)O)c2c(ccc3ccc(OC)c(OC)c32)c1OC
inactive: [3] > 100 µM | [4] > 100 µM | [5] > 100 µM | [6] > 100 µM | [7] > 100 µM | [8] > 100 µM

COc1ccc(-c2c(C#N)c(NC(=S)NC(=O)c3ccccc3)nc3c2CCCC3)cc1OC
inactive: [3] 34.7 µM | [4] > 100 µM | [5] 66.1 µM | [6] 14.9 µM | [7] > 100 µM

COc1cc2c(cc1OC)C(Cc1c3ccccc3cc3ccccc13)N(C)CC2 (stereo unspecified)
inactive: [1] 18.4 µM | [2] 16.5 µM

COCCOCOC(C)(C)[C@H](CCO)O[Si](c1ccccc1)(c1ccccc1)C(C)(C)C
inactive: [1] 3.18 µM | [9] 5.85 µM | [2] 17.5 µM

CC1(C)N/C(=C\C=O)C(C)(C)N1O
inactive: [3] > 100 µM | [5] > 100 µM | [7] > 100 µM

CCCCN(CCCC)c1ccc(/N=N/c2ccc(S(=O)(=O)O)cc2)cc1
inactive: [3] 25.4 µM | [4] 35.2 µM | [5] 57.9 µM | [6] 25.5 µM | [7] 39.2 µM

O=C(NN1C(=O)CS(=O)(=O)C1c1ccc(C(F)(F)F)cc1)c1ccncc1 (stereo unspecified)
inactive: [1] > 100 µM | [2] > 100 µM
